The source of these data is paper PMC12563652 (International Journal of Molecular Sciences, 2025).

Several values for one entry are separate records, joined by “and”; a condition that tells them apart may be missing. Equal values may be shown once. Read-outs that look alike come from different tables or passages of the source. Marks after values point to notes of the source that are not given here.

For series [1], the system named is Danio rerio larvae. Description: Fructose-induced lipid disturbance in zebrafish larvae (Oil Red O). Format: in vivo. Conditions: 20 µg/mL with 4% fructose, 24 h. The protocol: Zebrafish larvae 4 dpf were incubated for another 24 h with 4% fructose (final solution) in embryo medium to induce metabolic disorders. Tested solutions (compounds in E3: JP-14 at concentration of 20 μg/mL or resveratrol of 40 μg/mL) were added to fructose solution (8% in E3). The final concentration of JP-14 was 10 μg/mL or resveratrol of 20 μg/mL. The control group was incubated with E3 only. Incubation was carried out in a 6-well plate (10 larvae/well) to which 3 mL of liquid was added per well. Larvae were then collected, euthanized with tricaine, and transferred to 4% formaldehyde solution. After 24 h, larvae were washed 3 times with PBS (Sigma-Aldrich, Germany) and stained for neutral lipids, similar to previous studies. Larvae incubated for 1 h in a solution of 0.25% oil red O (ORO, Merck, Darmstadt, Germany) in 60% isopropanol (Merck, Germany). The samples were then rinsed three times with 60% isopropanol and washed 6 times with PBS, then imaged on a microscope (OPTA-TECH MN16, Warszawa, Poland) and analyzed with the ImageJ FIJI program. […] Next, the samples were centrifuged (10 min, 3000 rpm, MPW-260R, MPW Med Instruments, Warszawa, Poland), and the amount of dye in supernatant was determined spectrophotometrically (MuLTISKAN.GO, Thermo Fisher Scientific Inc. Waltham, MA, USA) at a wavelength of 495 nm.

The subject of series [2] is Danio rerio larvae. Description: Nile red fluorescence fat metabolism assay in zebrafish larvae. Conditions: 20 µg/mL, 48 h incubation of larvae. Format: in vivo. The protocol: The study was conducted based on the method described earlier by Jones et al.. Starting at 3 days after fertilization (dpf), larvae were placed into 6-well plates and incubated with the test solutions (compounds in E3: JP-14 at a concentration of 10 μg/mL or resveratrol or E3 alone) for 48 h. Resveratrol solution (20 μg/mL) was used as the reference compound. After 24 h, the solutions were replaced with new ones containing Nile red dye (9-diethylamino-5H-benzo[α]phenoxazine-5-one, Pol-aura, Poland) at a concentration of 100 ng/mL. Nile red is a selective fluorescent lipid dye used to stain lipid droplets. Incubation with the dye was therefore 24 h. Stock solution of Nile red was prepared earlier by dissolving it in acetone to a concentration of 500 μg/mL. After the incubation period, the larvae were rinsed 3 times with 0.1 M phosphate-buffered, pH 7.4 (PBS, Sigma-Aldrich, Schnelldorf, Germany) and anesthetized with cold […] tricaine solution (Sigma-Aldrich, Schnelldorf, Germany). Next, they were visualized under a fluorescence microscope (Zeiss.Discovery.V8, Zeiss, Oberkochen, Germany) and analyzed with ImageJ FIJI program (version 2.17.0).

The target of series [3] is T1, 5-HT2C serotoninergic receptor (Homo sapiens, UniProt P28335).
T1 sequence (P28335 33-458): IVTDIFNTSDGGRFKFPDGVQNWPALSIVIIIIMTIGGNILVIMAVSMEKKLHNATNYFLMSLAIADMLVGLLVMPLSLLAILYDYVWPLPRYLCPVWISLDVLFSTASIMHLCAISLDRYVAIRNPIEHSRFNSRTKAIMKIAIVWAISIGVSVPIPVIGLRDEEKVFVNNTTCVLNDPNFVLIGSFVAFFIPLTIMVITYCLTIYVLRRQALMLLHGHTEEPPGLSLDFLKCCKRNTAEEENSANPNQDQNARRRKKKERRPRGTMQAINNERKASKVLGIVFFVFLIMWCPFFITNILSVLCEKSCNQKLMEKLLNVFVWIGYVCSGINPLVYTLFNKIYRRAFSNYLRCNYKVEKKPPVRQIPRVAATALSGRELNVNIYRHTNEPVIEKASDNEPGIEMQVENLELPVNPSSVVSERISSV
Description: 5-HT2C intrinsic activity, antagonist mode (AequoScreen calcium mobilization). Format: cell-based. Background: Calcium flux is commonly read through the fluorescence of an indicator in the cells.
Description: (§1) The determination of intrinsic activity will be performed in accordance with the manufacturer’s Aequoscreen methodology—Perkin Elmer.
(§2) The cell density in the 96-well format was 5000 cells per well. Cell preparation for the assay was performed according to the manufacturer’s instructions for AequoScreen (PerkinElmer, Waltham, MA, USA). […] The cells suspension was applied onto the ligands with the injectors of the POLARstar optima reader (BMG Labtech, Ortenberg, Germany). […] The concentration and dilution series having four replicates were prepared as instructed in the AequoScreen Starter Kit Manual (PerkinElmer, Waltham, MA, USA). The wells received cell injections along with either the standard agonist or the compounds being evaluated, while the POLARstar optima reader documented the emitted light over a duration of 20 s. In the antagonist evaluation, cells were administered (50 μL) into the assay plate alongside antagonist solutions (50 μL). A single concentration of agonist (oxymetazoline) was injected (50 μL, final concentration EC80) into the preincubated (15–20 min) plate with cells and antagonist, and the emitted light was recorded for 20 s.

Series [4] addresses T2, α2B-adrenoceptor (Homo sapiens, UniProt P18089).
T2 sequence (P18089 1-450): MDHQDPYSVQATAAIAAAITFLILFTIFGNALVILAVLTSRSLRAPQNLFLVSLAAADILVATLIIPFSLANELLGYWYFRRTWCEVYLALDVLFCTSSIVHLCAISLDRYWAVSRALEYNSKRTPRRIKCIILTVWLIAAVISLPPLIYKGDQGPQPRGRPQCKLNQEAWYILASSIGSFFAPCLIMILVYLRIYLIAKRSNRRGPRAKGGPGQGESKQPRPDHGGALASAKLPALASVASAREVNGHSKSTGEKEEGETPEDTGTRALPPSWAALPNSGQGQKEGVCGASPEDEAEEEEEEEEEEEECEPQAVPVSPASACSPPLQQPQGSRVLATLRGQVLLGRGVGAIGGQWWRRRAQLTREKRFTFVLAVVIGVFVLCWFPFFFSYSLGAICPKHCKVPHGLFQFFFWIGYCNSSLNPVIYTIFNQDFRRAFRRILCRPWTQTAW
Conditions: read-out: α2B Ant IC50; cited from earlier work.

For series [5] the following is noted: rat, intraperitoneal administration; cited from earlier work.
Series [6] concerns the target T3, human TAAR1 (Homo sapiens, UniProt Q96RJ0).
T3 sequence (Q96RJ0 1-339): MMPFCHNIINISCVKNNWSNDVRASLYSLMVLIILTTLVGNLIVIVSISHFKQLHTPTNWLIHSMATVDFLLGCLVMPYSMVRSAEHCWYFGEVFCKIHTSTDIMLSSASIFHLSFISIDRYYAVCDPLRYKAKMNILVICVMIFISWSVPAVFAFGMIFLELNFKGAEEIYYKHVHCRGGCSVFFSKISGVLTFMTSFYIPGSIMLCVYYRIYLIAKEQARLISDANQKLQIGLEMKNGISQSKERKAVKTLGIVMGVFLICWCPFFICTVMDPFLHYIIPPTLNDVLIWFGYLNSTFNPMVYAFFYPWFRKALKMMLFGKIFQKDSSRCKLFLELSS
Conditions: at 10^−4 M; cited from earlier work.

The target in series [7] is T4, α2A-adrenoceptor (Homo sapiens, UniProt P08913).
T4 sequence (P08913 1-465): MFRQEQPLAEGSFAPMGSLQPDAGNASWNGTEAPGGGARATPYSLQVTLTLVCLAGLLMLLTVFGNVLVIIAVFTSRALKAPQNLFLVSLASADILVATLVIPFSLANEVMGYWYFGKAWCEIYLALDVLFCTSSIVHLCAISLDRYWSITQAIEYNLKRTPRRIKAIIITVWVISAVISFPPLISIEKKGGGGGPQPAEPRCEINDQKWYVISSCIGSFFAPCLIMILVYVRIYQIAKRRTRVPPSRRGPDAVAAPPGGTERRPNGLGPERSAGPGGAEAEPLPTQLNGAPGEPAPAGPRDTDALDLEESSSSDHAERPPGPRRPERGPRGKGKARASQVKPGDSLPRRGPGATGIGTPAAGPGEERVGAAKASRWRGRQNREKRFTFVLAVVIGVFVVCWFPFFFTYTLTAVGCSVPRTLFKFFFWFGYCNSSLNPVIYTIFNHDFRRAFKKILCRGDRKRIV
Conditions: cited from earlier work.

The test system of series [8] is TAAR1. Conditions: cited from earlier work.
Series [9] has as its system platelet aggregation in rat whole blood. Description: In vitro collagen-induced platelet aggregation in rat whole blood (impedance aggregometry). Format: cell-based. Conditions: collagen 1.6 µg/mL. As for the experimental part:
In vitro platelet aggregation assays were conducted using freshly collected whole blood from rats, utilizing the Multiplate platelet function analyzer (Roche Diagnostics, Mannheim, Germany)—a five-channel device that measures electrical impedance, following methods described previously. Upon stimulation, platelets adhere to and aggregate on dual metal sensors within the test cuvette, causing an increase in electrical resistance, which corresponds to the number of platelets attached to the electrodes.
Blood was collected from the carotid artery of the rat into tubes coated with hirudin (S-Monovette, Sarstedt, Germany). A volume of 300 μL of the anticoagulated blood was mixed with 300 μL of prewarmed isotonic saline that contained the test compound or a vehicle control (0.1% DMSO) and incubated at 37 °C for 3 min under continuous stirring. Aggregation was triggered by adding collagen (final concentration: 1.6 µg/mL). Platelet activity was monitored for 6 min. Multiplate V2.04 software calculated the area under the curve (AUC) for each measurement to determine average platelet response.

Series [10] concerns the target T3, human TAAR1. Description: TAAR1 agonist activity, Hit Hunter cAMP assay. Format: cell-based. Background: cAMP levels reflect the balance of adenylyl cyclase and phosphodiesterase activity.
Description: The intrinsic activity of the TAAR1 receptor will be assessed according to the manufacturer’s protocol, using the Hit Hunter® cAMP assay by DiscoverX. This assay enables monitoring of GPCR activation in cells stably expressing TAAR1 by measuring changes in the level of the secondary messenger, cAMP. The cAMP Hunter cell lines were cultured from frozen stocks following standard procedures. Cells were plated in white-walled 384-well microplates at a total volume of 20 µL per well and incubated at 37 °C for the required period before analysis. To assess agonist activity, cells were exposed to the test compound to trigger a response. The culture medium was then removed and replaced with 15 µL of a 2:1 mixture of HBSS and 10 mM Hepes containing the cAMP XS+ antibody reagent. Sample stocks were diluted to prepare a 4× concentration in assay buffer. Subsequently, 5 µL of the 4× sample was added to each well, and the plates were incubated at either 37 °C or room temperature for 30 or 60 min. The vehicle was used at a concentration of 1%. After incubating the compounds for the required time, the assay signal was produced by adding 20 µL of the cAMP XS+ ED/CL lysis cocktail and incubating for one hour. This was followed by a three-hour incubation with 20 µL of the cAMP XS+EA reagent at room temperature. After signal development, the microplates were read using a PerkinElmer Envision Reader to detect chemiluminescence.
Series [11] concerns the target α1-adrenoceptor. Description: Competitive radioligand binding, [3H]prazosin, rat cerebral cortex. Conditions: n.a. = no activity at 10–5 M. As for the experimental part:
The competitive radioligand-binding assay assessed affinity for α1- and α2-adrenoceptors. Experiments were carried out in the rat cerebral cortex. […] The membrane preparation and assay technique followed the previously reported protocol. Radioactivity was measured using the MicroBeta2 scintillation counter (PerkinElmer, Kraków, Poland). The data was adjusted to match a single-site curve-fitting formula using Prism 8 (GraphPad Software, La Jolla, CA, USA), and the Ki values were estimated by means of the Cheng–Prusoff formula.

Series [12] deals with α2-adrenoceptor. Description: Competitive radioligand binding, [3H]clonidine, rat cerebral cortex. Conditions: n.a. = no activity at 10–5 M.
Description: The competitive radioligand-binding assay assessed affinity for α1- and α2-adrenoceptors. Experiments were carried out in the rat cerebral cortex. […] The membrane preparation and assay technique followed the previously reported protocol [10]. Radioactivity was measured using the MicroBeta2 scintillation counter (PerkinElmer, Kraków, Poland). The data was adjusted to match a single-site curve-fitting formula using Prism 8 (GraphPad Software, La Jolla, CA, USA), and the Ki values were estimated by means of the Cheng–Prusoff formula.
Series [13] concerns the target T2, α2B-adrenoceptor. Description: α2B-adrenoceptor intrinsic activity, antagonist mode (AequoScreen). Format: cell-based. Conditions: n.a. = no activity at 10–5 M; read-out: α2B Ant IC50.
Description: as §1, §2

In the case of `Oc1ccc(/C=C/c2cc(O)cc(O)c2)cc1` [resveratrol], the fructose-induced yolk enlargement entry in [1] was “Comparable effects”. In series [2], the “Nile red detectable fat” value is given as “slightly stronger effect”.
Turning to `CC[C@@H](CO)NC(=O)[C@@H]1C=C2c3cccc4c3c(cn4C)C[C@H]2N(C)C1` [MSE, methysergide], the EC50 (as a rule, the concentration that produces a half-maximal response) in [3] amounted to 1.1 ± 0.1 nM.
For the compound 4-OH-guanabenz, in series [4], the IC50 – broadly, the point on the concentration scale where inhibition reaches its midpoint – was 330 nM. Besides, in series [5], the “highest (peak) level in brain” value is 64.5 ng/g and the tmax in brain is 15 min. For the same compound, the “TAAR1 Ago Emax (max Ago)” value in [6] was 34%/ (10^−4M) ^a. Further, the α2A-adrenoceptor activation in [7] (partial agonist) is 30%. Also, in [7] (read-out: α2A Ago EC50), the EC50 was 316 nM.
Regarding `N=C(N)N/N=C/c1c(Cl)cccc1Cl` [guanabenz], in series [5], the “highest (peak) level in brain” value is 183.2 ng/g. The tmax in brain in series [5] is given as 60 min. Further, the half-maximal effective concentration (EC50) in series [8] is 8.5 nM; in series [10] (cAMP accumulation, n.a. = no activity at 10–5 M, read-out: TAAR1 Ago EC50) it was 300 nM and 301 nM. Further, the “increase of collagen-induced platelet aggregation” value worked out at 31.81% in series [9] (10 µM) and 22.73% in [9] (100 µM). Moreover, in [10] (% of maximal response induced by the full agonist tyramine, listed as GNB), the “TAAR1 Ago Emax” value is recorded as 60%. Besides, the maximal response (Emax) – broadly, the greatest response seen or fitted, relative to the assay's reference – in series [10] (read-out: TAAR1 Ago Emax, % of maximal response induced by the full agonist tyramine) amounted to 50%.
As for `Cc1ccc(N(CC2=NCCN2)c2cccc(O)c2)cc1` [PHT, phentolamine], in series [11], the Ki (usually the equilibrium dissociation constant of an inhibitor or competing ligand from its target) was 10.9 ± 0.8 nM.
As for `COc1ccc(F)c(/C=N/NC(=N)N)c1F` [8 (JP10)], in series [12], the Ki turned out to be 232 ± 8.5 nM. The IC50 in series [13] came to 220 nM.
